Where a name gives a salt, the structure may show the parent alone. Read-outs that look alike come from different tables or passages of the source.
Tests used:
[1] = target: dopamine receptors (Rattus norvegicus, UniProt P61169); test: Inhibition of 3H-Spiroperidol Binding to Dopamine Receptors (rat corpus striatum); design: species or system rats (Sprague-Dawley CD males); details: 0.5 nM 3H-spiroperidol, 10 minutes at 37° C.
[2] = tested on: Amphetamine Stereotypy; test: Antagonism of Amphetamine Stereotypy in Rats (ED50 for blocking characteristic amphetamine cage movement); type: in vivo; details: s.c.; for ED50: Rattus norvegicus, sc; for ED50, 24 Hrs.: 1440 min; for ED50, 48 Hrs.: 2880 min; for ED50, 72 Hrs.: 4320 min; for ED50, 1 Hr.: 60 min
Method: The effects of the compounds of the present invention on prominent amphetamine-induced symptoms were studied in rats by a rating scale modeled after the one reported by Quinton and Halliwell, and Weissman. Groups of five rats were placed in a covered plastic cage measuring approximately 26 cm.×42 cm.×16 cm. […] They were then treated 1, 5 and 24 hrs. later with d-amphetamine sulfate, 5 mg./kg. intraperitoneally (i.p.). […] On the basis of dose-response data after amphetamine it was possible to determine the effective dose of the compound necessary to antagonize or block the characteristic amphetamine behavior of cage movement for fifty percent of the rats tested (ED50). The time of rating chosen coincides with the peak action of amphetamine which is 60-80 min. after treatment with this agent.
Employing the above-described procedure, the following 4a,9b-trans compounds were tested for their ability to block the behavior effects of amphetamine, the results being reported as the ED50 in mg./kg. at the indicated times: [drawing 30]
A. The following results were obtained on the mixture of diastereomers for those compounds wherein R contains a secondary alcohol group and on the single diastereomer of the other 4a, 9b-trans hexahydro-pyrido-indoles.
B. The results of tests in which compounds of the invention reported in Part A, above are compared with the corresponding δ-substituted-5-aryl-1,2,3,4-tetrahydropyrido[4,3-b]indoles of U.S. Pat. No. 4,001,263 are summarized below. For each pair the results obtained on the prior art compound (a) are given first and the results for the compound of the invention (b) are given second. Where indicated the test compound was also administered orally (p.o.) and tests were carried out for 48 hours.
C. […] In each case the compounds are of the formula
The tests were carried out for 72 hours.

[3] = Part C, isomers of Examples 13 and 14, hydrochloride
[4] = Part D, enantiomers by synthesis of Example 21, hydrochloride

Sequence of dopamine receptors (P61169 whole entry): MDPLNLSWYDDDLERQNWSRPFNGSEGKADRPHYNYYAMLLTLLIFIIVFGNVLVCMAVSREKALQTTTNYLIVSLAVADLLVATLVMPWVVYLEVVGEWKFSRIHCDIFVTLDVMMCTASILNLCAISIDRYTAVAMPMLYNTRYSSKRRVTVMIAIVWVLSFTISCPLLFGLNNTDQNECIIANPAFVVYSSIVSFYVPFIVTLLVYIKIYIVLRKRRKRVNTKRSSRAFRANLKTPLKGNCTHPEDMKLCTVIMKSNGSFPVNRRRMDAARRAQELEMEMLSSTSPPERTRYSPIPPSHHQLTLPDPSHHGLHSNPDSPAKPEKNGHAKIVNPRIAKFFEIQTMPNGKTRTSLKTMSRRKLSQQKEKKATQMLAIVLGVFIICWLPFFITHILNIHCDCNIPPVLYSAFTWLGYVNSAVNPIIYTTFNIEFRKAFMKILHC

Row | SMILES | IC50 [1] [nM] | ED50 ([2]; 1 h, Part C, isomers of Examples 13 and 14, read-out: ED50, 1 Hr.) [mg/kg] | ED50 ([2]; 5 h, Part C, isomers of Examples 13 and 14, read-out: ED50, 5 Hrs.) [mg/kg] | ED50 ([2]; 24 h, Part C, isomers of Examples 13 and 14, read-out: ED50, 24 Hrs.) [mg/kg] | ED50, 24 Hrs. [2, 3] | ED50, 48 Hrs. [2, 4] | ED50, 72 Hrs. [2, 4] [mg/kg] | ED50, 1 Hr. [2, 3] [micrograms/kilograms] | ED50, 1 Hr. [2, 4] [mg/kg] | ED50, 5 Hrs. ([2]; 5 hrs, Part D, enantiomers by synthesis of Example 21, hydrochloride, 300 min) [mg/kg] | ED50, 24 Hrs. [2, 4] [mg/kg]
1 | OC(CCCN1CC[C@H]2[C@H](C1)c1cc(F)ccc1N2c1ccc(F)cc1)c1ccc(F)cc1 (relative stereo) [αβγδ, dl-trans-8-Fluoro-5-(p-fluorophenyl)-2-[4-hydroxy-4-(p-fluorophenyl)butyl]-2,3,4,4a,5,9b-hexahydro-1H-pyrido[4,3-b]indole hydrochloride] | 21 | 0.032 to 0.1 | 0.032 to 0.1 | 0.032 to 0.1 |  |  |  |  |  |  | 
2 | OC(CCCN1CC[C@@H]2[C@@H](C1)c1cc(F)ccc1N2c1ccc(F)cc1)c1ccc(F)cc1 (single isomer, unassigned) [γ, trans 8-fluoro-5-(p-fluorophenyl)-2-[4-hydroxy-4(p-fluorophenyl)butyl]-2,3,4,4a,5,9b-hexahydro-1H-pyrido[4,3-b]indole hydrochloride] | 25 |  |  |  | 32-100 micrograms/kilograms | ca. 1 mg./kg. | > 1 |  |  |  | 
3 | OC(CCCN1CC[C@@H]2[C@@H](C1)c1cc(F)ccc1N2c1ccc(F)cc1)c1ccc(F)cc1 (single isomer, unassigned) [δ, trans 8-fluoro-5-(p-fluorophenyl)-2-[4-hydroxy-4(p-fluorophenyl)butyl]-2,3,4,4a,5,9b-hexahydro-1H-pyrido[4,3-b]indole hydrochloride] | 350 |  |  |  | 320-1000 micrograms/kilograms | > 10 mg/kg | > 10 | > 1000 | > 10 | 5.7 | > 10

Reference: patent US4224329A, “2-Substitute d-trans-5-aryl-2,3,4,4a,5,9b-hexahydro-1H-pyrido[4,3-b]indoles” (Pfizer Inc., priority 1979, dated 1980)
